Type in all cases: physicochemical
Data set [1] is described as follows: Evaluation of maximum absorption wavelength (absorption spectrometry in ethyl acetate solution). The conditions noted are these: concentration 1×10^−6 mol/L, optical path length 10 mm. The protocol: <Evaluation of Maximum Absorption Wavelength>
The thus-obtained arylidene-pyrazolone dyes of Examples 101 to 105 were analyzed absorption spectrometry in an ethyl acetate solution (concentration: 1×10^−6 mol/L, optical path length: 10 mm).

The nature of data set [2]: Dye solubility in methyl ethyl ketone/toluene. More on the design: key: A (easily soluble); B (soluble); C (difficult to dissolve, but soluble). The conditions noted are these: solvent methyl ethyl ketone/toluene (1/1, w/w), ranked in three. The text has this:
The dye solubility of each compound in the solvent of methyl ethyl ketone/toluene (1/1, w/w) was ranked in three, A (easily soluble), B (soluble), C (difficult to dissolve, but soluble).

A short description of data set [3]: Light fastness of thermal transfer recorded image (Xe light exposure). The settings on record: Xe light (17000 lux) for 7 days; retention of status A reflection density 1.0; image from thermal transfer ink sheet. An excerpt:
(§1) The thermal transfer recording ink sheet produced in Example 201 and the image-receiving material constructed as above were combined in such a manner that the dye-donating layer could face the image-receiving layer, and this was printed using a thermal head applied to the back of the dye-donating material. The output power of the thermal head was 0.25 W/dot, pulse width was from 0.15 to 15 msec, the dot density was 6 dots/mm. In that manner, the magenta dye was imagewise fixed on the image-receiving layer of the image-receiving material, and as a result, a sharp image print with no transfer unevenness was obtained.
(§2) The thermal transfer recording ink sheets produced in Example 202 to 204 and produced in Comparative Example 201 to 203 were used in place of the thermal transfer recording ink sheet produced in Example 201, tested for image recording.
Next, the thermal transfer image-receiving material that had been recorded by the thermal transfer were exposed to a Xe light (17000 lux) for 7 days, and tested for the light stability (light fastness) of the recorded images. After the exposure, the status A reflection density of the part of each sample having an original status A reflection density of 1.0 before the exposure was measured, and the retention (by percentage) to the reflection density of 1.0 after exposure to that before exposure indicates the image stability. With the retention percentage, the samples were ranked in three, A (from 90% to less than 100%), B (from 80% to less than 90%), C (less than 80%).

Data set [4] is described as follows: Wet heat fastness of thermal transfer recorded image (80° C., 70% RH, dark). The settings on record: 80° C. and 70% RH in a dark place for 7 days; retention of Status A reflection density 1.0; image from thermal transfer ink sheet.
Source text: as §1, §2
Further, the thermal transfer image-receiving material that had been recorded by the thermal transfer in the same manner as above were stored under the condition of 80° C. and 70% RH in a dark place for 7 days, and checked for the wet heat stability (wet heat fastness) of the image. After exposure to light, the Status A reflection density of the area having an initial Status A reflection density of 1.0 was measured; and the density retentiveness (percentage) relative to the original reflection density 1.0 before exposure to light was computed. Based on the computed data, the samples were evaluated with regard to the stability into three ranks, A (from 90% to less than 100%), B (from 80% to less than 90%), and C (less than 80%).

In the case of `CCOC1=NN(S(C)(=O)=O)C(=O)/C1=C\c1ccc(N(CC)CC)cc1` [Compound Y-1], the “Maximum Absorption Wavelength” value in data set [1] is reported as 468 nm. For the same compound, in data set [2], the Solubility entry is given as “A”. The “Light Fastness” value in data set [3] is reported as “A (A (from 90% to less than 100%))”. The “Wet Heat Fastness” value in data set [4] was “A (A (from 90% to less than 100%))”.

For the compound `CCOC1=NN(S(=O)(=O)N(C)C)C(=O)/C1=C\c1ccc(N(CC)CC)cc1` [Compound Y-8], in data set [1], the “Maximum Absorption Wavelength” value stood at 462 nm. In addition, in data set [2], the Solubility result is listed as “A”. The “Light Fastness” value in data set [3] is reported as “A (A (from 90% to less than 100%))”. The “Wet Heat Fastness” value in data set [4] was “A (A (from 90% to less than 100%))”.

In the case of “C.I.Disperse Yellow 201 [Comparative Dye 1]”, the Solubility entry in data set [2] was “A”. In data set [3], the “Light Fastness” value is listed as “A (A (from 90% to less than 100%))”. In data set [4], the “Wet Heat Fastness” value was “C (C (less than 80%))”.

Regarding `CCOC1=NN(c2ccccc2)C(=O)/C1=C\c1ccc(N(CC)CC)cc1` [Comparative Dye 2], in data set [2], the Solubility entry was “B”. In addition, the “Light Fastness” value in data set [3] is listed as “A (A (from 90% to less than 100%))”. Further, the “Wet Heat Fastness” value in data set [4] is “C (C (less than 80%))”.

Turning to `CCOC1=NN(C)C(=O)/C1=C\c1ccc(N(CC)CC)cc1` [Comparative Dye 3], the Solubility result in data set [2] is “A”. Further, the “Light Fastness” value in data set [3] is recorded as “B (B (from 80% to less than 90%))”. Besides, in data set [4], the “Wet Heat Fastness” value is on record as “C (C (less than 80%))”.
